Patent US5683668A, “Method of generating nitric oxide gas using nitric oxide complexes” (The United States of America as represented by the …, priority 1996, dated 1997)
Where two headings read alike, the source gives them in different places. Blank lines part the entries; values can stand above or below the compound they belong to.

Tests used:
[1] = % NO yield on acid release, thermal energy analyzer (TEA); assay type: physicochemical; conditions: weight percent of the theoretical maximum, dilute aqueous HCl
Method: NO gas was generated from compounds 2, 6, 10, 11, and 14 of Example 1, as well as H2 N(CH2)3 N[N(O)NO^- ](CH2)4 NH(CH2)3 NH3^+, using the procedure set forth below. The percent NO yield was then calculated for each of these NO adducts.
The apparatus comprises a first vessel 10 having an inlet 11 and an outlet 12 and contains mineral oil (or other heavy liquid) to prevent backflow. The outlet 12 of vessel 10 is connected to a first inlet 21 of second vessel 20, which also has a second inlet 22 and an outlet 23. The second vessel 20 contained either the solid NO complex or an aqueous solution of the NO complex. An addition funnel 30 is connected to the second inlet 22 of second vessel 20 so as to provide a means of introducing dilute aqueous HCl into second vessel 20. The outlet 23 of second vessel 20 is connected to the inlet 41 of condenser 40, and the outlet 42 of condenser 40 is connected to the inlet 51 of third vessel 50. The condenser 40 and third vessel 50 function to capture any mist carried through the apparatus in the gas stream. The outlet 52 of third vessel 50 is connected to drying towers 60 and 70 which contain desiccant such as calcium chloride or molecular sieves and contain an outlet 71 for gas passage.
In use, nitrogen gas was passed through the apparatus through the inlet 11 of first vessel 10 to flush oxygen from the apparatus. Acidic solution was then introduced into second vessel 20 by way of addition funnel 30, and NO gas was generated in second vessel 20. The thus generated NO gas flowed through the outlet 23 of second vessel 20, through the condenser 40, into the third vessel 50, into the drying towers 60 and 70, and out the […].
The NO gas released through the outlet 71 of drying column 70 was fed into a thermal energy analyzer (TEA), which generates a signal proportional to the quantity of NO gas present. The yield of NO gas, as a weight percent of the theoretical maximum, obtained for each of the compounds tested is given in Table III.

[2] = NO release half-life by disappearance of UV absorption in phosphate buffer; assay type: physicochemical
Method: Ultraviolet data were obtained in 0.01M NaOH to avoid this degradation problem. […] Kinetic data were obtained by diluting stock solutions (0.01M NaOH) of each compound with pH 7.4 phosphate buffer (0.1M) as needed to produce final solutions having compound concentrations in the range of 90-120 μM.

[3] = unless stored at -78° C.; prior art salts; cited from earlier work
[4] = Stability of the adducts as solids; assay type: physicochemical; conditions: applicant's statements; room temperature, closed containers or air
[5] = Refrigerated storage stability by combustion analysis; assay type: physicochemical; conditions: refrigerator, several months
Source text: Samples of compound 11 of Example 1 were stored in a refrigerator over the course of several months.

[6] = Equivalents of NO released at 22° C.; assay type: physicochemical
[7] = % NO by weight of the NO complexes; assay type: physicochemical
[8] = NO gas yield measured volumetrically in a gas buret; assay type: physicochemical
Method: In a separate series of experiments, the generated gas was also collected in a gas buret and the yields were measured volumetrically. Yields ranged from 70-90% of theoretical. For example, when 1.0 g of CH3 N(N2 O2^-)CH2 CH2 NH3^+ was added to 5 ml concentrated H2 SO4, 285 ml NO gas (85%) was trapped in the buret.

[9] = 22° C., pH 7.4, 0.1M phosphate buffer, read-out: t1/2
[10] = phosphate buffer, buffered aqueous solution, pH 7.4, 22° C., read-out: half-life (converted)

half-life [2, 9]: 0.228 h
SMILES: CN(CCCN)[N+]([O-])=NO [Compound 9, 1-Hydroxy-2-oxo-3-(3-aminopropyl)-3-methyl-1-triazene]

half-life [2, 9]: 0.0217 h | half-life [2, 10]: 0.0217 h
SMILES: CNCCCCN(C)[N+]([O-])=NO [Compound 4, 1-Hydroxy-2-oxo-3-(N-methyl-4-aminobutyl)-3-methyl-1-triazene]

half-life [2, 9]: 4.73 h
SMILES: NCCCN(CCCN)[N+]([O-])=NO [Compound 15, 1-Hydroxy-2-oxo-3,3-di(3-aminopropyl)-1-triazene]

% NO By Wt. [7]: 40.5% | half-life [2, 9]: 5.55 h | half-life [2, 10]: 5.55 h
SMILES: CCN(CCN)[N+]([O-])=NO [Compound 7, 1-Hydroxy-2-oxo-3-(2-aminoethyl)-3-ethyl-1-triazene]

half-life [2, 9]: 0.168 h | half-life [2, 10]: 0.168 h
SMILES: CNCCCN(C)[N+]([O-])=NO [Compound 3, 1-Hydroxy-2-oxo-3-(N-methyl-3-aminopropyl)-3-methyl-1-triazene]

half-life [2, 9]: 1.92 h
SMILES: NCCCN(C1CCCCC1)[N+]([O-])=NO [Compound 13, 1-Hydroxy-2-oxo-3-(3-aminopropyl)-3-cyclohexyl-1-triazene]

stability as solid [4]: hygroscopic | half-life [2, 9]: 2.75 h
SMILES: NCCCCN(CCCN)[N+]([O-])=NO [Compound 16, 1-Hydroxy-2-oxo-3-(3-aminopropyl)-3-(4-aminobutyl)-1-triazene]

half-life [2, 9]: 1.55 h
SMILES: CC(C)N(CCCN)[N+]([O-])=NO [Compound 1, 1-Hydroxy-2-oxo-3-(3-aminopropyl)-3-isopropyl-1-triazene]

More lines, now with the values behind:

SMILES: CCNCCCN(CC)[N+]([O-])=NO [Compound 10, 1-Hydroxy-2-oxo-3-(N-ethyl-3-aminopropyl)-3-ethyl-1-1-triazene]
% NO Yield [1]: 100% | half-life [2, 9]: 1.2 h

SMILES: CC(C)N/[N+]([O-])=N/O
stability in the solid state [3]: slow decomposition even in the solid state unless stored at -78 °C

SMILES: CC(C)N(CCCN)[N+]([O-])=NO.CC(C)NCCCN
stability as solid [4]: not stable enough to obtain combustion analytical data

SMILES: CNCCCCCCN(C)[N+]([O-])=NO [Compound 5, 1-Hydroxy-2-oxo-3-(N-methyl-6-aminohexyl)-3-methyl-1-triazene]
half-life [2, 9]: 0.045 h

SMILES: CCCN(CCCN)[N+]([O-])=NO [Compound 11, 1-Hydroxy-2-oxo-3-(3-aminopropyl)-3-propyl-1-triazene]
% NO Yield [1]: 110% | change in elemental composition on storage [5]: no change in elemental composition was observed | half-life [2, 9]: 1.28 h | equivalents of NO released [6]: two equivalents

SMILES: CCN(CC)[N+]([O-])=NO [DEA/NO]
stability in the solid state [3]: slow decomposition even in the solid state unless stored at -78 °C

SMILES: CCN(CC)[N+]([O-])=NO [CH3 CH2 N(N2 O2^-)CH2 CH3.Na^+, reference compound]
% NO By Wt. [7]: 38.7%

SMILES: NCCCNCCCCN(CCCN)[N+]([O-])=NO [spermine/NO adduct]
% NO Yield [1]: 95% | equivalents of NO released [6]: two equivalents

SMILES: CNCCN(C)[N+]([O-])=NO [Compound 2, 1-Hydroxy-2-oxo-3-(N-methyl-2-aminoethyl)-3-methyl-1-triazene]
% NO Yield [1]: 98% | % NO By Wt. [7]: 40.5% | half-life [2, 9]: 0.602 h | half-life [2, 10]: 0.602 h | equivalents of NO released [6]: two equivalents

SMILES: CN(CCN)[N+]([O-])=NO [Compound 6, 1-Hydroxy-2-oxo-3-(2-aminoethyl)-3-methyl-1-triazene]
% NO Yield [1]: 110% | volume of NO gas trapped ([8]; 1.0 g adduct added to 5 ml concentrated H2 SO4): 285 mL | volumetric NO yield ([8]; percent of theoretical, gas buret): 85% | % NO By Wt. [7]: 45% | % NO By Wt. ([7]; listed as CH3 N(N2 O2^-)CH2 CH2 NH3^+): 44.7% | half-life [2, 9]: 0.667 h | half-life [2, 10]: 0.667 h | equivalents of NO released [6]: two equivalents

SMILES: CCNCCN(CC)[N+]([O-])=NO [Compound 8, 1-Hydroxy-2-oxo-3-(N-ethyl-2-aminoethyl)-3-ethyl-1-triazene]
% NO By Wt. [7]: 34.1% | half-life [2, 9]: 5.45 h | equivalents of NO released [6]: two equivalents

SMILES: CC(C)NCCCN(C(C)C)[N+]([O-])=NO [Compound 12, 1-Hydroxy-2-oxo-3-(N-isopropyl-3-aminopropyl)-3-isopropyl-1-triazene]
half-life [2, 9]: 1.48 h

SMILES: NCCN(CCN)[N+]([O-])=NO [Compound 14, 1-Hydroxy-2-oxo-3,3-di (2-aminoethyl)-1-triazene]
% NO Yield [1]: 97% | % NO By Wt. [7]: 36.8% | half-life [2, 9]: 56.7 h | half-life (in words) ([2]; comparison between adducts differing in R' or type): too stable to permit monitoring over a sufficient number of half-lives | half-life relative to the diethylamine/NO adduct ([2]; fold over diethylamine/NO adduct): over 200 times | half-life [2, 10]: 56 h | equivalents of NO released [6]: two equivalents
